From PMC6407579, “New flavonoid – N,N-dibenzyl(N-methyl)amine hybrids: Multi-target-directed agents for Alzheimer´s disease endowed with neurogenic properties” (Journal of Enzyme Inhibition and Medicinal Chemistry, 2019) come the findings set out here.

By inhibition is commonly meant the share of the control response that was lost under treatment. In general, IC50 refers to the point on the concentration scale where inhibition reaches its midpoint. The term Ki denotes the dissociation constant of the complex between target and ligand, obtained from inhibition or displacement.

Data set [1] can be described thus: In vitro blood-brain barrier permeation assay (PAMPA-BBB). The class given is in vitro ADME. Conditions: pig, pH 7.4, porcine brain lipid, PBS:ethanol (70:30), 25 °C, read-out: PAMPA-BBB permeability in the CNS (Pe). As to the method:
Prediction of the brain penetration was evaluated using a parallel artificial membrane permeation assay (PAMPA-BBB), in a similar manner as previously described[36]^,[46]^,[51–53]. Pipetting was performed with a semi-automatic pipettor (CyBi®-SELMA) and UV reading with a microplate spectrophotometer (Multiskan Spectrum, Thermo Electron Co.). Commercial drugs, phosphate buffered saline solution at pH 7.4 (PBS), and dodecane were purchased from Sigma, Aldrich, Acros, and Fluka. Millex filter units (PVDF membrane, diameter 25 mm, pore size 0.45 μm) were acquired from Millipore. The porcine brain lipid (PBL) was obtained from Avanti Polar Lipids. The donor microplate was a 96-well filter plate (PVDF membrane, pore size 0.45 μm) and the acceptor microplate was an indented 96-well plate, both from Millipore. The acceptor 96-well microplate was filled with 200 μL of PBS: ethanol (70:30) and the filter surface of the donor microplate was impregnated with 5 μL of porcine brain lipid (PBL) in dodecane (20 mg mL^−1). Compounds were dissolved in PBS: ethanol (70:30) at 100 μg mL^−1, filtered through a Millex filter, and then added to the donor wells (200 μL). The donor filter plate was carefully put on the acceptor plate to form a sandwich, which was left undisturbed for 120 min at 25 °C. After incubation, the donor plate is carefully removed and the concentration of compounds in the acceptor wells was determined by UV-Vis spectroscopy. Every sample is analysed at five wavelengths, in four wells and at least in three independent runs, and the results are given as the mean ± standard deviation. In each experiment, 11 quality control standards of known BBB permeability were included to validate and normalise the analysis set.
To check if new compounds could be able to reach their CNS-targets, we used the in vitro parallel artificial membrane permeability assay for the blood-brain barrier (PAMPA-BBB) described by Di et al.[87], and partially modified by us for testing molecules with limited water-solubility[36]^,[46]^,[51–53]. The passive CNS-permeation of new compounds 1–13 through a lipid extract of porcine brain was measured at room temperature. In each experiment, 11 commercial drugs of known brain permeability were also tested and their permeability values normalised to the reported PAMPA-BBB data. […].
(In general: PAMPA measures passive passage across an artificial lipid membrane.)

The target of data set [2] is T1, human recombinant BACE-1 (hBACE-1) (Homo sapiens, UniProt P56817).
T1 construct: purchased Invitrogen
Kind of data set: Human BACE-1 inhibition FRET assay. The class given is biochemical.
Description: This experiment was carried out according to the protocol described by the manufacturer (Invitrogen) using a FRET assay[54]. […] The intact substrate is weakly fluorescent and becomes highly fluorescent upon enzymatic cleavage. The assays were conducted in 50 mM sodium acetate buffer, pH 4.5, in a final enzyme concentration (1 U/mL). The mixture was incubated for 60 min at 25 °C under dark conditions and then stopped with 2.5 M sodium acetate.

For a further data set, the target named is T2, σ2R (Rattus norvegicus, UniProt Q5U3Y7).
T2 construct: 150 µg of rat liver homogenate were incubated; from tissue; host or cells: rat liver homogenate
T2 sequence (Q5U3Y7 1-176): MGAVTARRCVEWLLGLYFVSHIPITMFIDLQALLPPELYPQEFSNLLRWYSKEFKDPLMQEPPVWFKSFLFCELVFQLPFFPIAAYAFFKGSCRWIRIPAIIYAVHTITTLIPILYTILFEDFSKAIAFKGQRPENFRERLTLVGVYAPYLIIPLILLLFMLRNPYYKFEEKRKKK
Nature of the data set: Sigma-2 receptor binding, [3H]-DTG competition.

The subject of data set [3] is adult mice SGZ-derived NSCs. Kind of data set: Neurogenic assay on SGZ-derived neural stem cells grown as neurospheres. The class given is cell-based, mouse. The following applies: 10 µM, 7 days plus 3 days differentiation, vs. vehicle-treated cultures.
Description: DAPI was used for nuclear staining.
Neural stem cells were isolated from the SGZ of the dentate gyrus of the hippocampus of adult mice and cultured as NS according to previously published protocols[75]^,[76]. […] Now, NS were adhered onto 100 μg/mL poly-L-lysine-coated coverslips and treated for 3 additional days in the presence of serum but in the absence of exogenous growth factors to induce differentiation[77]. Finally, the expression of neuronal markers was analysed by immunocytochemistry using antibodies linked to neurogenesis: β-III-tubulin polyclonal antibody (TuJ clone; Abcam), a protein expressed at early stages of neurogenesis and a monoclonal microtubule-associated protein type 2 (MAP-2) antibody, a classical marker of late neuronal maturation. To visualise primary antibodies Alexa-fluor-labeled secondary antibodies (Molecular probes) were used. Nuclei were stained with DAPI. Fluorescent representative images were acquired in a LSM710 laser scanning spectral confocal microscope (Zeiss). […]
Compound was added to NS cultures for 7 days and then, NS were fixed to a substrate and allowed to differentiate in the presence of 6 for a 3-days additional period. Then, we evaluated the expression of β-III-tubulin (TuJ-1 clone; green) and microtubule-associated protein 2 (MAP-2, red) antibodies to visualise early and late neuronal maturation, respectively.
The nature of data set [4]: Oxygen radical absorbance capacity assay (ORAC). Conditions: trolox taken as 1.0.
In the next data set the target is T3, hAChE (Homo sapiens, UniProt P22303).
T3 construct: purchased Sigma Chemical Co
Nature of the data set: Kinetic analysis of hAChE inhibition (Lineweaver-Burk). The class given is biochemical. As to the method:
Figure 3. Kinetic study on the mechanism of hAChE inhibition by hybrid 5. (A) Overlaid Lineweaver-Burk reciprocal plots of hAChE initial velocity at increasing substrate concentration (ATCh, 0.2–1.6 mM) in the absence of inhibitor and in the presence of 5 (0–10 µM) are shown. Lines were derived from a least-squares analysis of the data points. (B) Replot of slopes vs. inhibitor concentration for calculating Ki as the intersection in the x-axis. […]
The initial velocity of enzymatic inhibition was measured at four concentrations of the substrate acetylthiocholine (ATCh, 0.2–1.6 mM), in absence and presence of increasing concentrations of inhibitor 5 (0.5–10 µM). For each inhibitor concentration, plotting reciprocals of velocity vs. ATCh concentration (1/V vs. 1/[ATCh]) gave straight lines that were fitted by least-squares analysis (Figure 3). […]

Several values for one entry are separate records, joined by “and”; a condition that tells them apart may be missing. Equal values may be shown once. Read-outs that look alike come from different tables or passages of the source.

T1 sequence (P56817 46-501): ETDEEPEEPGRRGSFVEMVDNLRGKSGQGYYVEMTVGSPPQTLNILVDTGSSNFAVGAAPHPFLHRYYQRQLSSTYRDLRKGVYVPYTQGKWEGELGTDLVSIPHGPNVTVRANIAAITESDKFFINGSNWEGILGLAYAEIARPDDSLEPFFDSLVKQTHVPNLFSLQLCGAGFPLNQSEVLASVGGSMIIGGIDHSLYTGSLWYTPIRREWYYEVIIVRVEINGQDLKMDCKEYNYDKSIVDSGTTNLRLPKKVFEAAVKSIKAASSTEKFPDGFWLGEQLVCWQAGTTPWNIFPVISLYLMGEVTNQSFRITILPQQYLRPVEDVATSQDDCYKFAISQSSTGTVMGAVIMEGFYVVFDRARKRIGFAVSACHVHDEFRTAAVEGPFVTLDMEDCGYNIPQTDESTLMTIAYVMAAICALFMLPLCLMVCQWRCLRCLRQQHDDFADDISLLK
T3 sequence (P22303 32-614): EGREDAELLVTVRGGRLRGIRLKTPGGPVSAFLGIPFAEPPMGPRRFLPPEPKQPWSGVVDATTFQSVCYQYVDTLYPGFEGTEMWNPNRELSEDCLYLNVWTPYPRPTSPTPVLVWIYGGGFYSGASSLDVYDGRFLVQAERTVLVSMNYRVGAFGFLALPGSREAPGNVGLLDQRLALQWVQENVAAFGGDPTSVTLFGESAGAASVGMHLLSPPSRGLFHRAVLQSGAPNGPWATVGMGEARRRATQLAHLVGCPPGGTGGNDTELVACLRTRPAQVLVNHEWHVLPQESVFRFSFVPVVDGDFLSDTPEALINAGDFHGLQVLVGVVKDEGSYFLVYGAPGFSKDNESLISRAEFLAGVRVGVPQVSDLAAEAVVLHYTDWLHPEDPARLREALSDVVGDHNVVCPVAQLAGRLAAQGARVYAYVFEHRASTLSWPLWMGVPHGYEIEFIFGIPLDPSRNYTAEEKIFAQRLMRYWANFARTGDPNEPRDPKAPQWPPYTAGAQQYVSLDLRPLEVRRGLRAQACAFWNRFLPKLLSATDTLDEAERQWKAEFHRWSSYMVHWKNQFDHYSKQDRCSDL

Consider `COc1cc2oc(C(=O)Nc3cccc(CN(C)Cc4ccccc4)c3)cc(=O)c2cc1OC` [Compound 6, N-(3-((Benzyl(methyl)amino)methyl)phenyl)-6,7-dimethoxy-4-oxo-4H-chromene-2-carboxamide], for which the Papp at 120 min, 100 μg mL^−1 in data set [1] worked out at 18.8 ± 1.3 ×10⁻⁶ cm/s. In data set [2] (10 µM, read-out: hBACE-1 inhibition percentage), the inhibition at 10 µM is approximately 80%. Also, the IC50 in data set [2] (inhibitor concentrations 0.1–100 µM) came out at 6700 ± 800 nM. In addition, on σ2R (rat liver homogenate, [3H]-DTG, mean ± SEM, read-out: Ki σ2R), the Ki was 1300 ± 350 nM. Besides, the “number of TuJ-1 and MAP-2 marked cells (neuronal differentiation of NSCs)” value in data set [3] is “clearly increased”.

For the compound `CN(Cc1ccccc1)Cc1ccc(NC(=O)c2cc(=O)c3cc(O)ccc3o2)cc1` [Compound 2, N-(4-((Benzyl(methyl)amino)methyl)phenyl)-6-hydroxy-4-oxo-4H-chromene-2-carboxamide], the “ORAC, trolox equivalents” value in data set [4] is 1.6 mmol of trolox/mmol of tested compound and 1.6 ± 0.2 mmol of trolox/mmol of tested compound. Moreover, the Papp at 120 min, 100 μg mL^−1 in data set [1] amounted to 6.8 ± 0.4 ×10⁻⁶ cm/s. On σ2R, this compound yielded a Ki of 1600 ± 280 nM.

`COc1cc2oc(C(=O)Nc3ccc(CN(C)Cc4ccccc4)cc3)cc(=O)c2cc1OC` [Compound 5, N-(4-((Benzyl(methyl)amino)methyl)phenyl)-6,7-dimethoxy-4-oxo-4H-chromene-2-carboxamide]: the Papp at 120 min, 100 μg mL^−1 in data set [1] was found to be 19.1 ± 1.5 ×10⁻⁶ cm/s. The inhibition constant Ki at hAChE came to 950 nM. Further, the “mechanism of hAChE inhibition” value on hAChE (Lineweaver-Burk) was “a mixture of competitive and non-competitive mechanisms”.

Take `COc1ccc2oc(C(=O)Nc3ccc(CN(C)Cc4ccccc4)cc3)cc(=O)c2c1` [Compound 1, N-(4-((Benzyl(methyl)amino)methyl)phenyl)-6-methoxy-4-oxo-4H-chromene-2-carboxamide]: in data set [1], the Papp at 120 min, 100 μg mL^−1 is 17.1 ± 1.5 ×10⁻⁶ cm/s. This compound also returned a Ki on σ2R of 1780 ± 430 nM.
